Test results as given in patent publication US9844565B2, “Systems and methods for treatment of acne vulgaris and other conditions with a topical nitric oxide delivery system” (priority 2012, dated 2017).

What was measured:
[1] = tested on: capillary circulation of the skin; assay: Laser Doppler study in five human subjects, 10,000 ppm NO formulation vs controls (Example 7); type: in vivo; conditions: positive control formulation containing 0.1% methyl nicotinate
Excerpt: This example illustrates delivery of nitric oxide formulations to five human subjects, using procedures and formulations similar to those discussed in Example 5. Each person served as their own control for the testing. A Moor Instruments Laser Doppler was used to determine circulation. […] The formulations used produce positive, almost immediate results when applied to the skin which, in these studies, was manifested by vasodilatation of the cutaneous vascular system.
For each subject, the following creams were applied: a negative control formulation (containing no NO), 0.010 gram of a 10,000 ppm NO formulation, 0.020 gram of a 10,000 ppm NO formulation, and a positive control formulation containing 0.1% methyl nicotinate. The formulations were prepared using procedures similar to those discussed in Example 1.

[2] = tested on: micro-capillary blood flow to skin; assay: Laser Doppler study with covered chamber in three human female subjects, 10,000 ppm NO (Example 5); type: in vivo; conditions: applied to the skin at 1/10% in alcohol
Excerpt: While nitric oxide has many physiological effects, the purpose of these studies was to measure physiological effects that would be relatively easy to determine, and which would be noninvasive. […] Nitric oxide is capable of […] the capillary bed, and thus, laser Doppler was selected.
The formulation used in these studies contained nitric oxide dispersed in a lipid matrix. […] Nitric oxide is a very rapid acting molecule, and these studies used a system that employed laser Doppler with a covered chamber. The formulation was placed into the chamber and then attached to the skin by an adhesive layer on the covering. This provided a stable measuring device as determined by multiple normal evaluations of the capillary blood flow without treatment of nitric oxide.
A known positive control, methyl nicotinate, was applied to the skin at a concentration of 1/10% in alcohol. […] The vascular dynamics are such that when the blood vessels dilate physical parameters follow Bernoulli's law. […] The laser Doppler device accurately measured these parameters. […]
A Moor Instruments DRT4 Laser Doppler Blood Flow Monitor (Devon, England) was used in these studies. The laser Doppler technique measured blood flow in the microcapillaries of the skin that are close to the skin surface and the blood flow in underlying arterioles and venules that help to regulate skin temperature. […]

COC(=O)c1cccnc1 [methyl nicotinate]
vasodilatation (laser Doppler) [1]: vasodilatation was observed
laser Doppler response of positive control [2]: rapid response typical of the vasodilator
